Source: patent US20250170104A1, “INHIBITORS OF PSEUDOMONAS AERUGINOSA VIRULENCE FACTOR Lasß” (priority 2022, published 2025)
pIC50: −log10 of the molar value.

Experiments:
[1] = Kinetic turbidimetric solubility assay; assay type: physicochemical; conditions: PBS, aqueous buffer, kinetic from dmso stock
Protocol: The desired compounds were sequentially diluted in DMSO in a 96-well plate. 1.5 μL of each well were transferred into another 96-well plate and mixed with 148.5 μL of PBS. Plates were shaken for 5 min at 600 rpm at room temperature, and the absorbance at 620 nm was measured. Absorbance values were normalized by blank subtraction and plotted using GraphPad Prism 8.4.2 (GraphPad Software, San Diego, CA, USA). Solubility (S) was determined based on the First X value of AUC function using a threshold of 0.005.

in vitro = in vitro ADME; conditions: mouse, s9
Protocol: For the evaluation of combined phase I and phase II metabolic stability, the compound (1 μM) was incubated with 1 mg/mL pooled liver S9 fraction (Xenotech), 2 mM NADPH, 1 mM UDPGA, 10 mM MgCl2, 5 mM GSH and 0.1 mM PAPS at 37° C. for 0, 5, 15, 30 and 60 min. The metabolic stability of Testosterone (1 μM), verapamil (1 μM) and ketoconazol (1 μM) were determined in parallel to confirm the enzymatic activity of the S9 fraction. The incubation was stopped by precipitation of S9 enzymes with 2 volumes of cold acetonitrile containing internal standard (150 nM Diphenhydramine). Samples were stored on ice for 10 min and precipitated protein was removed by centrifugation (15 min, 4° C., 4,000 rpm). The remaining test compound at different time points was analyzed by LC-MS/MS (TSQ Quantum Access MAX, Thermo Fisher, Dreieich, Germany) and used to determine half-life (t½).

MMP1 = MMP1 (Homo sapiens (Human), UniProt P03956); test: Selectivity assay: inhibition of MMPs; assay type: biochemical
Protocol: (§1) MMPs-1, -2, -3, -7, -8 and -14 along with the SensoLyte 520 Generic MMP Activity Kit*Fluorimetric* were purchased from AnaSpec (Fremont, CA, USA). The assay was performed as described previously (Schönauer E, Kany A M, Haupenthal J, Hüsecken K, Hoppe I J, Voos K, et al. Discovery of a Potent Inhibitor Class with High Selectivity toward Clostridial Collagenases. J Am Chem Soc. 2017 Sep. 13; 139(36):12696-703) using batimastat as a positive control according to the guidelines of the manufacturer.

MMP2 = MMP2 (Homo sapiens (Human), UniProt P08253); test: Selectivity assay: inhibition of MMPs; assay type: biochemical
Protocol: as §1

MMP3 = MMP3 (Homo sapiens (Human), UniProt P08254); test: Selectivity assay: inhibition of MMPs; assay type: biochemical
Protocol: as §1

HDAC3 = HDAC3 (Homo sapiens (Human), UniProt O15379); test: HDAC inhibition; assay type: biochemical; conditions: read-out: Selectivity IC50 HDAC3
Protocol: (§2) HDAC3 and HDAC8 Inhibitor Screening Assay kits were purchased from Sigma-Aldrich. The assay was performed according to the guidelines of the manufacturer using trichostatin as a positive control. Fluorescence signals were measured in a CLARIOstar plate reader (BMG Labtech).

HDAC8 = HDAC8 (Homo sapiens (Human), UniProt Q9BY41); test: HDAC inhibition; assay type: biochemical; conditions: read-out: Selectivity IC50 HDAC8
Protocol: as §2

ADAM-17 (TACE) = ADAM-17 (TACE) (Homo sapiens (Human), UniProt P78536); test: ADAM-17 (TACE) inhibitor screening assay; assay type: biochemical; conditions: read-out: Selectivity IC50 TACE
Protocol: The ADAM-17 (TACE) Inhibitor Screening Assay Kit was purchased from Sigma-Aldrich. The assay was performed according to the guidelines of the manufacturer using ilomastat as a positive control. Fluorescence signals were measured in a CLARIOstar plate reader (BMG Labtech).

Cytotoxicity assay = assay type: cell-based; conditions: human
Protocol: HepG2, HEK293 or A549 cells (2×10^5 cells per well) were seeded in 24-well, flat-bottomed plates. Culturing of cells, incubations, and OD measurements were performed as described previously (Int. J. Cancer 2007, 121, 206-210). Twenty-four hours after seeding the cells, the incubation was started by the addition of test compound in a final DMSO concentration of 1%. The living cell mass was determined after 48 h. At least two independent measurements were performed for each compound.

[2] = system: A549 cells challenged with P. aeruginosa PAO1 culture supernatant; test: A549 cell-based assay, LasB-related cytotoxicity (MTT); parameters: species or system human; conditions: 10% (v/v) PAO1 csn
Protocol: The human lung adenocarcinoma cell line (A549) was cultured in Dulbecco's Modified Eagle Medium (DMEM), containing 10% Fetal Bovine Serum (FBS) and 1% penicillin-streptomycin mixture. Cells were maintained according to standard cell culture procedures.
To conduct the assay, 2.5-3.5*10^3 cells/well were seeded into a flat bottom 96-well plate (Corning™ Costar™) and incubated at 37° C.+5% CO2 for 24 hours. On the following day, several concentrations of the compound 169 were tested against 10% (v/v) Pseudomonas aeruginosa PAO1 (DSM 22644, ATCC 15692) culture supernatant diluted in DMEM starting from 1.25 μM. The compound was initially dissolved in 99.9% Dimethyl sulfoxide (DMSO) and a final assay concentration of 0.5% (v/v) was applied to minimize the proteolytic effect of DMSO on the bacterial culture supernatant. In addition, cells were challenged with 10% (v/v) of AlasB PAO1 to confirm the toxic effect derived from LasB, and DMEM was included as a control without any treatment. Plates were incubated at 37° C.+5% CO2 for 24 hours prior to the MTT assay.
The graph represents three independent experiments ±SD. One-way ANOVA statistical analysis was performed following Dunnett's multiple comparisons test, comparing the mean value of each concentration to the mean value of PAO1 without any treatment with compounds (**** p≤0.0001, ** p≤0.01, * p≤0.05).

Chain of HDAC3 (O15379 whole entry, looked up): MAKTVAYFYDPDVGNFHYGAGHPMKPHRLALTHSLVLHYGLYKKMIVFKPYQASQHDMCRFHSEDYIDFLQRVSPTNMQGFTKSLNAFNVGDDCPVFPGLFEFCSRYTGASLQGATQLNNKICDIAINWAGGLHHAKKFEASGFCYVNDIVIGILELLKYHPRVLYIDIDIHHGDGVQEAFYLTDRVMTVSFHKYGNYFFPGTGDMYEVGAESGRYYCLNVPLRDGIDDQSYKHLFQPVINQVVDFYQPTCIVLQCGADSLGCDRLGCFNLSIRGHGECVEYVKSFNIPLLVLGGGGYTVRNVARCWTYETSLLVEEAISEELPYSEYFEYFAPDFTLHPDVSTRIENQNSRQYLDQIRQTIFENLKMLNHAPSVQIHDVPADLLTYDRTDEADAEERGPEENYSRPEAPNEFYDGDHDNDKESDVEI
Chain of HDAC3 (Q9Y618 whole entry partner, looked up): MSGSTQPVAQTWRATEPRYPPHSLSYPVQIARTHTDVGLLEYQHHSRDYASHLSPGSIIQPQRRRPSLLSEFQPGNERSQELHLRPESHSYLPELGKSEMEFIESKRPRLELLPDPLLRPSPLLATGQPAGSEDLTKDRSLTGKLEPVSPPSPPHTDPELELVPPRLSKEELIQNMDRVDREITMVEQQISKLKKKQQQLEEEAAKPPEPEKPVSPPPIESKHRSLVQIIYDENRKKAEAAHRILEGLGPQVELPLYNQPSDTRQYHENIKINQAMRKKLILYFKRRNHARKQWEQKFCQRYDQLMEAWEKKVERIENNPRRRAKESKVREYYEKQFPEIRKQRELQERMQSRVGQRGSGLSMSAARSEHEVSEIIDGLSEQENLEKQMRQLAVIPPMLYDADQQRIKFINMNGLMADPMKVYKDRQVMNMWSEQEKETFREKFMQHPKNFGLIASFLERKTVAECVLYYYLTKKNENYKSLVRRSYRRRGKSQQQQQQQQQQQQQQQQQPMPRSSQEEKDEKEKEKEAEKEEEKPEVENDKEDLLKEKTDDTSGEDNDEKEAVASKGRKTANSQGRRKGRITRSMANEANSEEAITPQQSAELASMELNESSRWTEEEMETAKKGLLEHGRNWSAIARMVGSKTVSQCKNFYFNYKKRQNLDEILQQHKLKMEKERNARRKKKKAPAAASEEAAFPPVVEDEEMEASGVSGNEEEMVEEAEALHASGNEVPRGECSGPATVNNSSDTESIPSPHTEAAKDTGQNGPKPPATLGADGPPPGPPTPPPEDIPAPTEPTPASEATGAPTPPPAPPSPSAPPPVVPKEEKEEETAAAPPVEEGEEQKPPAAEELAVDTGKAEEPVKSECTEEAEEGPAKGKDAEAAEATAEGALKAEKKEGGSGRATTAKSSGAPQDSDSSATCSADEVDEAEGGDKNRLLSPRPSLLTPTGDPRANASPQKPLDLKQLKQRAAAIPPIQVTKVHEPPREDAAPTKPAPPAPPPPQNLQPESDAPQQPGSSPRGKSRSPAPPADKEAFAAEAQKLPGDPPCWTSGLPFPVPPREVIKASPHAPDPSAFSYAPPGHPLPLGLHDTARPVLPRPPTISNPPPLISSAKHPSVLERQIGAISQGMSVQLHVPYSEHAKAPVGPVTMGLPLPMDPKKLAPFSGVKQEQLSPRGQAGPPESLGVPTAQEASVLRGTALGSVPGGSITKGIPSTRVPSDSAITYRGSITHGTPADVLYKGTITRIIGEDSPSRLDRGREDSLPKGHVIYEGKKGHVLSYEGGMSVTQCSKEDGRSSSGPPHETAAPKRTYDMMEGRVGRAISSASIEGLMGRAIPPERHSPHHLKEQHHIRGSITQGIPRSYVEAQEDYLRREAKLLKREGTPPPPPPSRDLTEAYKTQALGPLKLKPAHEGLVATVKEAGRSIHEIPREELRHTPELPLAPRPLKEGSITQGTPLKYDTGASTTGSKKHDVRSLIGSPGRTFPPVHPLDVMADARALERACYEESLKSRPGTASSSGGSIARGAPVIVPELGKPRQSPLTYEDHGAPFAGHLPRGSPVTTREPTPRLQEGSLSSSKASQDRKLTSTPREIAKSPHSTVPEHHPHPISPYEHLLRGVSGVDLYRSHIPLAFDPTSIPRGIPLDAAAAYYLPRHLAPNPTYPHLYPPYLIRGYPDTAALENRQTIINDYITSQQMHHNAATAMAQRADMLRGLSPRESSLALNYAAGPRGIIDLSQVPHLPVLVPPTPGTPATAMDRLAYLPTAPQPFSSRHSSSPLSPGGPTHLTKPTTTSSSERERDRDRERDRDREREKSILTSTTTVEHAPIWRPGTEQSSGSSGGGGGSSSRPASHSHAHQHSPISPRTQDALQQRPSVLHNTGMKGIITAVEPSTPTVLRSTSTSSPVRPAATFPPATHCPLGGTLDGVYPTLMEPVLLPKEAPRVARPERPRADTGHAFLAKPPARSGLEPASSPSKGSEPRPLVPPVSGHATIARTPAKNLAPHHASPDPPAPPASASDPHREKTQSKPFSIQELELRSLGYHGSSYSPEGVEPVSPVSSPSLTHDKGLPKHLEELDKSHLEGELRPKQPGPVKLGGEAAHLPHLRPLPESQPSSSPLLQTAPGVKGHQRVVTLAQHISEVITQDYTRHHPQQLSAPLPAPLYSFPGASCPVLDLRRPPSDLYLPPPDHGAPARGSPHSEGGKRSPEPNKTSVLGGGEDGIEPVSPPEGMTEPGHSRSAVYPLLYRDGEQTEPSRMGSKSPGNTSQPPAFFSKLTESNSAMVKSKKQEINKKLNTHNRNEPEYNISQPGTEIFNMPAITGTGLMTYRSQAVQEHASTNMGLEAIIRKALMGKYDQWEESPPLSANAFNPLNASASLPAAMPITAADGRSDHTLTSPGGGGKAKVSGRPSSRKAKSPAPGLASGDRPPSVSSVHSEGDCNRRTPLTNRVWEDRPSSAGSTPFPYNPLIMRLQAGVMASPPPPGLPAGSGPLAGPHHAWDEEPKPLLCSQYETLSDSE
Chain of ADAM-17 (TACE) (P78536 whole entry, looked up): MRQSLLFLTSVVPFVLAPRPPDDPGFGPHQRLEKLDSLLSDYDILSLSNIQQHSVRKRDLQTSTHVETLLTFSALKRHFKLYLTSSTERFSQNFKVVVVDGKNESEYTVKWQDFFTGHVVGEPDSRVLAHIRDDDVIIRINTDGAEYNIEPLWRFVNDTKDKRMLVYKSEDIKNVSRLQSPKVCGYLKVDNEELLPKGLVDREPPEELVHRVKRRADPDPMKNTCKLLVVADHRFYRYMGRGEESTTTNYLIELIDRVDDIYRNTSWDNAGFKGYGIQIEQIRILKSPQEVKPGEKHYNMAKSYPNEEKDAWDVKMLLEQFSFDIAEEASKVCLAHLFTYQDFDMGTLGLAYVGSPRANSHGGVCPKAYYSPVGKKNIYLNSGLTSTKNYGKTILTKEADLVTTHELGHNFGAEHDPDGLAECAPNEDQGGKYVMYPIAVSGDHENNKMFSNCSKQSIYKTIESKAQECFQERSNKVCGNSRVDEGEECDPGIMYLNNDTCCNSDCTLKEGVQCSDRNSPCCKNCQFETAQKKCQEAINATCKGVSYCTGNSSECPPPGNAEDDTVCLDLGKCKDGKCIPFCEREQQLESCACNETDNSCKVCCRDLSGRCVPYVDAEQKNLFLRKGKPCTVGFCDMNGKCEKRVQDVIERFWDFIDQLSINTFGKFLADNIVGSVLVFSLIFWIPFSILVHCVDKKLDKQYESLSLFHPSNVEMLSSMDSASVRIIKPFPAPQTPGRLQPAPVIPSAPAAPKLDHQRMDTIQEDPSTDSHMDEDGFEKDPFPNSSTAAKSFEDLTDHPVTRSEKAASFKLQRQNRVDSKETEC
Chain of HDAC8 (Q9BY41 whole entry): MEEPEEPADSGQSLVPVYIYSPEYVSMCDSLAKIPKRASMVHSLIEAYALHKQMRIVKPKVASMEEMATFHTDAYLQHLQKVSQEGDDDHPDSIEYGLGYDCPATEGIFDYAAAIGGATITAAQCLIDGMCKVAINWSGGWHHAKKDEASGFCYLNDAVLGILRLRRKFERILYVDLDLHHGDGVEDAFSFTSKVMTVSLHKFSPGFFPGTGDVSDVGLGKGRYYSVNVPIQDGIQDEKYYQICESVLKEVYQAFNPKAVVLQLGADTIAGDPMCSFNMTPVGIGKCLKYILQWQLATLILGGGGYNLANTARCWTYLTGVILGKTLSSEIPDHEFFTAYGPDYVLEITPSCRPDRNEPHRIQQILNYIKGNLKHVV
Chain of MMP1 (P03956 100-469): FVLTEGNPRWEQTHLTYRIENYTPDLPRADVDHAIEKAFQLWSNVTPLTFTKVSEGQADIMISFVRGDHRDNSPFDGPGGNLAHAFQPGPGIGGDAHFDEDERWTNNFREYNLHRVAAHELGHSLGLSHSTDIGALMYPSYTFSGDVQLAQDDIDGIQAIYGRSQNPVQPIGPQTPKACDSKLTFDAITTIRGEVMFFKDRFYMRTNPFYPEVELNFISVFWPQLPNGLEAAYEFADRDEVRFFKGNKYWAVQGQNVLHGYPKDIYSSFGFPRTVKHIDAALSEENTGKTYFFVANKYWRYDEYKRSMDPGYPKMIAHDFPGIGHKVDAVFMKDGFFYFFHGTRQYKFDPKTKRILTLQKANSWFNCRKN
Chain of MMP2 (P08253 110-660): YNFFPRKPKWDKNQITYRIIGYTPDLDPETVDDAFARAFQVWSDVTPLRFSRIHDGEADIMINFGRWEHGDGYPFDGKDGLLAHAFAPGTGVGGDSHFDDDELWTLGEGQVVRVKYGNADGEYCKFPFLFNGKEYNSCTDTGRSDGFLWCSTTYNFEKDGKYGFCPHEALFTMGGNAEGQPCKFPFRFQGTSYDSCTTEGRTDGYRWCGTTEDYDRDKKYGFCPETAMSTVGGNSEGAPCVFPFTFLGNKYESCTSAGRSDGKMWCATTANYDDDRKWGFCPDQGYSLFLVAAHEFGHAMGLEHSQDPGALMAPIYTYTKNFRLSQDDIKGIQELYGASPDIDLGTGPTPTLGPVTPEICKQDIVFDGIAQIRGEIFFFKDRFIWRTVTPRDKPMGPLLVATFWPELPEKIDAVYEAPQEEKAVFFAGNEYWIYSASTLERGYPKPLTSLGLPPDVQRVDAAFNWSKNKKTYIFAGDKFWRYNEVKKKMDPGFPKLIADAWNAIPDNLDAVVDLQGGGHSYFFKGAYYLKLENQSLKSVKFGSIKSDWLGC

CC(C)CC(C(=O)NO)C(=O)Nc1ccc(Cn2cc(CNS(=O)(=O)CC(C)C)nn2)cc1 (stereo not shown) [Compound 169, 2-(Hydroxycarbamoyl)-N-[4-[[4-[(isobutylsulfonylamino)methyl]triazol-1-yl]methyl]phenyl]-4-methyl-pentanamide]
solubility at 5 min [1]: > 200 µM | half-life at 1 μM (in vitro): > 2 h | pIC50 (MMP1): < 4.00 | pIC50 (MMP2): < 4.00 | pIC50 (MMP3): < 4.00 | pIC50 (HDAC3): < 4.00 | pIC50 (HDAC8): < 4.00 | pIC50 (ADAM-17 (TACE)): < 4.00 | IC50 at 48 h (Cytotoxicity assay; A549 cells): > 100 µM | IC50 at 48 h (Cytotoxicity assay; HEK293 cells): > 100 µM | IC50 at 48 h (Cytotoxicity assay; HepG2 cells): > 100 µM | Reduction of LasB-related cytotoxicity in A549 cells ([2]; 24 h, MTT): excellent potency | Dose-response of LasB inhibition in A549 cells ([2]; from 1.25 μM): Dose-dependent inhibition of LasB in a low micromolar to nanomolar range
